Laboratory results as given in ChEMBL document CHEMBL1142715, “Discovery of new tetracyclic tetrahydrofuran derivatives as potential broad-spectrum psychotropic agents” (J Med Chem, 2005).

Columns and labels:
[1] = biological target: T1, Alpha-2C adrenergic receptor (Homo sapiens, UniProt P18825); assay: Inhibition of [3H]rauwolscine binding to Alpha-2C adrenergic receptor
T1 sequence (P18825 whole entry): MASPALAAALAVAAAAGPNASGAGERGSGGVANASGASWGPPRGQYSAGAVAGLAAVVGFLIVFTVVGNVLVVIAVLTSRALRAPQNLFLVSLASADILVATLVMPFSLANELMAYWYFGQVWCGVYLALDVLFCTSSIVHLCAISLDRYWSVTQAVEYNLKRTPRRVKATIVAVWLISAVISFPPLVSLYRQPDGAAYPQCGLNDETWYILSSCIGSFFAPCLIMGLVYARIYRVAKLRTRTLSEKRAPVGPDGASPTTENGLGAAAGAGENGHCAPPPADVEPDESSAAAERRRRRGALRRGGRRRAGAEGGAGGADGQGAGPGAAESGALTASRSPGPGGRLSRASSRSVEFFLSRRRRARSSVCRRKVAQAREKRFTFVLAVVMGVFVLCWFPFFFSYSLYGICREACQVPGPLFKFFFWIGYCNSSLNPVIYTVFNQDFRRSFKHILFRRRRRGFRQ

[2] = biological target: Norepinephrine transporter (Rattus norvegicus, UniProt Q9WTR4); assay: Inhibition of [3H]nisoxetine binding to rat Norepinephrine transporter
Sequence of Norepinephrine transporter (Q9WTR4 whole entry): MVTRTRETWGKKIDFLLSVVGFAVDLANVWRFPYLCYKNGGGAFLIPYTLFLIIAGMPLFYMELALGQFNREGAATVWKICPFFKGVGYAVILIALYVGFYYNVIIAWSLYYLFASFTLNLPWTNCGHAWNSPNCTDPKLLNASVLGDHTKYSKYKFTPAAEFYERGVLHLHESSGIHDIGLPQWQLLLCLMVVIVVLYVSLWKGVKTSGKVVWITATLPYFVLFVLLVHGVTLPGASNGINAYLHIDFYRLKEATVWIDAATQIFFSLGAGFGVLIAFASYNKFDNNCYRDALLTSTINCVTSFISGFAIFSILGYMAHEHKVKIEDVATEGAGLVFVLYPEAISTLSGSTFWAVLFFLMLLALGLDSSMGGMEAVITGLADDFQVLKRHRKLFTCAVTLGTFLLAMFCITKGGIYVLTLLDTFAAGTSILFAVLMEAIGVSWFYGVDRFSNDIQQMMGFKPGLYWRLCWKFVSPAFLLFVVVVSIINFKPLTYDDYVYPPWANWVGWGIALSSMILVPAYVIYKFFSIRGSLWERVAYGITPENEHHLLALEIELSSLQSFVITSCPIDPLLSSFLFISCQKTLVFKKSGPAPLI

D(1A) dopamine receptor [3] = biological target: D(1A) dopamine receptor (Homo sapiens, UniProt P21728); assay: Inhibition of [3H]SCH-23390 binding to human Dopamine receptor D1
Sequence of D(1A) dopamine receptor (Homo sapiens, UniProt P21728) (P21728 whole entry): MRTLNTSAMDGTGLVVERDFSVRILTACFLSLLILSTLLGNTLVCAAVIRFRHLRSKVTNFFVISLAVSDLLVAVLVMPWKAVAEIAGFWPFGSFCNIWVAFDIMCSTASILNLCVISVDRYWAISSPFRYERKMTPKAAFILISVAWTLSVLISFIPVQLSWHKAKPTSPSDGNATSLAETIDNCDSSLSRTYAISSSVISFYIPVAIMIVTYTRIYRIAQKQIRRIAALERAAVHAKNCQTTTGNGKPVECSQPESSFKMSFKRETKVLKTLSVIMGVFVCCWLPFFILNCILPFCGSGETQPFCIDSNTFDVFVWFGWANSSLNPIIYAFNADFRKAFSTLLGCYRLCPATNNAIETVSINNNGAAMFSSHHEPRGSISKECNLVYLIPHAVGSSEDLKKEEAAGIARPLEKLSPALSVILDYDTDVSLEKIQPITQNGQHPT

Histamine H1 receptor = Histamine H1 receptor (Homo sapiens, UniProt P35367)
Sequence of Histamine H1 receptor (P35367 whole entry): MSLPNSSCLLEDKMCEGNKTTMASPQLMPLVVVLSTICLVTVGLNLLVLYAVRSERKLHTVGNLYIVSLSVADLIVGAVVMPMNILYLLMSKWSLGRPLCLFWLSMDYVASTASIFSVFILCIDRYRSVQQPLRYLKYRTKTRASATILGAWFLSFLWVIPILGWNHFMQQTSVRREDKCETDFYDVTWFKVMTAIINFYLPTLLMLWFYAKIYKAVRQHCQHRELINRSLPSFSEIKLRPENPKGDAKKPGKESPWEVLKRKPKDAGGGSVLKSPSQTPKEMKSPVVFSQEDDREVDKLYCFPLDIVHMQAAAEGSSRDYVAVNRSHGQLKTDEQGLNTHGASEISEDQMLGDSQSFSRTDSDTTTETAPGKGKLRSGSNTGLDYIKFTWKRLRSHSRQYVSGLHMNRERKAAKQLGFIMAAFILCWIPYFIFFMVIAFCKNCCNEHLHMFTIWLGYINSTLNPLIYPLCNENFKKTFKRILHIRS
Description: Inhibition of [3H]pyrilamine binding to human Histamine H1 receptor

[4] = biological target: 5-hydroxytryptamine receptor 7 (Homo sapiens, UniProt P34969)
Sequence of 5-hydroxytryptamine receptor 7 (P34969 whole entry): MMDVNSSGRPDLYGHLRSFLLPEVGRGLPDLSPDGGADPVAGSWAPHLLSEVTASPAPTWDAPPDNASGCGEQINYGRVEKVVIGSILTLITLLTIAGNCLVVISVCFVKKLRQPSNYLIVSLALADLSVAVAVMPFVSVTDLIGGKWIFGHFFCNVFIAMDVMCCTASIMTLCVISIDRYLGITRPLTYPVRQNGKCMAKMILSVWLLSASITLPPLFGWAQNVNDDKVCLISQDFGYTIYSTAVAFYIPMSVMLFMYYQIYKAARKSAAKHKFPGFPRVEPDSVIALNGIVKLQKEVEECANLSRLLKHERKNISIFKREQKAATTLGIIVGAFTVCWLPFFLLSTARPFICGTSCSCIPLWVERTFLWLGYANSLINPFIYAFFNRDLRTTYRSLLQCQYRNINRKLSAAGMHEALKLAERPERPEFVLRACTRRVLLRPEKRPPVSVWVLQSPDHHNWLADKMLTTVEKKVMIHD
Description: Inhibition of [3H]5-HT binding to human 5-hydroxytryptamine 7 receptor

D(3) dopamine receptor = D(3) dopamine receptor (Homo sapiens, UniProt P35462)
Sequence of D(3) dopamine receptor (P35462 whole entry): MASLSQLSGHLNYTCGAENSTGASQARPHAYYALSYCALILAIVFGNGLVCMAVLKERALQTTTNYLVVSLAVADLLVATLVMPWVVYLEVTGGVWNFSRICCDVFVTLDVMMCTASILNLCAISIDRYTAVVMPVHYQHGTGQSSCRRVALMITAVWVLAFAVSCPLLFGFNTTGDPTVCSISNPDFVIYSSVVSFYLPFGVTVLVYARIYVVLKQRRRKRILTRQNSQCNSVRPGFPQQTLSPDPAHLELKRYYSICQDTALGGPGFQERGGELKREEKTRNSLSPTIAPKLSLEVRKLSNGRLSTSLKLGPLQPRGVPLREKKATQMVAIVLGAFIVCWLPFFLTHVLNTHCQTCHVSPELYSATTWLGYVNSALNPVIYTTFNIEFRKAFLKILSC
Description: Inhibition of [125I]iodosulpiride binding to human Dopamine receptor D3

[5] = biological target: T2, Alpha-2A adrenergic receptor (Homo sapiens, UniProt P08913)
T2 sequence (P08913 whole entry): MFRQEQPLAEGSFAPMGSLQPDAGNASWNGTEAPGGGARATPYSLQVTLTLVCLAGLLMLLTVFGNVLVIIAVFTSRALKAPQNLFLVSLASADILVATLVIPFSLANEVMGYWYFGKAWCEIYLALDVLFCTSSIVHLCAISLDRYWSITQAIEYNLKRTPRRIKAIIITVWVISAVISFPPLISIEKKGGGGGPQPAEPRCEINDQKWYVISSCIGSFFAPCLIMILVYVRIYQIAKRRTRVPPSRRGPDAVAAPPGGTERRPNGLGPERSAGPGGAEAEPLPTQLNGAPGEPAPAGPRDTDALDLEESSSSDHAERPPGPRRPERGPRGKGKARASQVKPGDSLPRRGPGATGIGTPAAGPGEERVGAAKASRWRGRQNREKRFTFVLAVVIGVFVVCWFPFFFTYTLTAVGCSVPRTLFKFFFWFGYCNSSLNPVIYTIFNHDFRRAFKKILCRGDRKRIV
Description: Inhibition of [3H]rauwolscine binding to Alpha-2A adrenergic receptor

[6] = biological target: T3, 5-hydroxytryptamine receptor 2C (Homo sapiens, UniProt P28335)
T3 sequence (P28335 whole entry): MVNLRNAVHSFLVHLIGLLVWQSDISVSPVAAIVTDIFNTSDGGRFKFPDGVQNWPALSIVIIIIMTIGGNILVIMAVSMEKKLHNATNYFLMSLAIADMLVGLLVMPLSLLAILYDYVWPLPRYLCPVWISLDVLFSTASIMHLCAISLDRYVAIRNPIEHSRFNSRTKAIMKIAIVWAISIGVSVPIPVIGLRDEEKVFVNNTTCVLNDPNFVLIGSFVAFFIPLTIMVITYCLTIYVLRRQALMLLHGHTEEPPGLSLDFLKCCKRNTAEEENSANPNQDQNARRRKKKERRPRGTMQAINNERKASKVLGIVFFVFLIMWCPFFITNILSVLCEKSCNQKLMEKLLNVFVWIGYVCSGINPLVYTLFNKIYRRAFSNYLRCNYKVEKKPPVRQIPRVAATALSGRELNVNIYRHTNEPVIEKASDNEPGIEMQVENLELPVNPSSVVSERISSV
Description: Inhibition of [3H]mesulergine binding to human 5-hydroxytryptamine 2C receptor

[7] = biological target: T4, Adrenergic receptor alpha-1 (Rattus norvegicus, UniProt P15823+P23944+P43140)
T4 sequence (P15823 whole entry): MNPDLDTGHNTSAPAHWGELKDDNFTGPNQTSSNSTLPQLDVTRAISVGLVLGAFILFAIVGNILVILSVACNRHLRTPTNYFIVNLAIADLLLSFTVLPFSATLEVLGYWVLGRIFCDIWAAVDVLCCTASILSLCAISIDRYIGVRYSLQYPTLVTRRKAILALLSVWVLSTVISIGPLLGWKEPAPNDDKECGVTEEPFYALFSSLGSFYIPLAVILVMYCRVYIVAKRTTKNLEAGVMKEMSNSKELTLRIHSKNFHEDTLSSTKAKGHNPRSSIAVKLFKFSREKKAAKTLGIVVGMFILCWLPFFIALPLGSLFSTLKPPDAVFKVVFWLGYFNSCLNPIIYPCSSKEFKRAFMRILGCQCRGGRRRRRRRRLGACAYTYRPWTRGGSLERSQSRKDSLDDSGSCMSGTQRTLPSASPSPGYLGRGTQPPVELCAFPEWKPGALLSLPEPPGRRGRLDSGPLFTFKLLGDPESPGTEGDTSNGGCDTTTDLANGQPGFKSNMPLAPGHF
T4 sequence (P23944 whole entry): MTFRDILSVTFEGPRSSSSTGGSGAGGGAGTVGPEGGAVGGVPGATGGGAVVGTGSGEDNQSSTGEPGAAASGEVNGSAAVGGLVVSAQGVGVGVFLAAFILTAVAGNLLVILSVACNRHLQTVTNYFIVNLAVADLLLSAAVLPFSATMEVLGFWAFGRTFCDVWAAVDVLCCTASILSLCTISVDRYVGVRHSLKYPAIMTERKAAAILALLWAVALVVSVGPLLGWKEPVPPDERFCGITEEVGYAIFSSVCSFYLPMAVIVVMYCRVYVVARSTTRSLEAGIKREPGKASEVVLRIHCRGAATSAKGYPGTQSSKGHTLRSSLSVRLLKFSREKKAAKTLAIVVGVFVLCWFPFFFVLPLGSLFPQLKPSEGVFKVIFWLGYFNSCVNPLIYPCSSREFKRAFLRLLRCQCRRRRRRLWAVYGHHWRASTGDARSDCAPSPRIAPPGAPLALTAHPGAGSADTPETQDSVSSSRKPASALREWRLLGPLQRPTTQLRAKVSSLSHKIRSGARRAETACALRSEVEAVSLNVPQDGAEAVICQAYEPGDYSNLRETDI
T4 sequence (P43140 whole entry): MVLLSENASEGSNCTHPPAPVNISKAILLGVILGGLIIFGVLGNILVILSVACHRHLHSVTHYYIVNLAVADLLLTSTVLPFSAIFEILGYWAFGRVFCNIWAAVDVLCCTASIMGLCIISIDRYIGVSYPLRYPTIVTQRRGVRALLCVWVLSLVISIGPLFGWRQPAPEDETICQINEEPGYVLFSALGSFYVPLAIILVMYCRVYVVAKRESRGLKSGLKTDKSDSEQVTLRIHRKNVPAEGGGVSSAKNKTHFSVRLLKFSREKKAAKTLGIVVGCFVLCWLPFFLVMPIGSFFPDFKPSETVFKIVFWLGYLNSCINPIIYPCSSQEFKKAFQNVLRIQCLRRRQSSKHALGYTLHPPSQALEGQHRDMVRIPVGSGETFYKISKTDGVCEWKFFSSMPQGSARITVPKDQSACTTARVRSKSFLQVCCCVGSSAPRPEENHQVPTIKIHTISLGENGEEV
Description: Inhibition of [3H]prazosin binding to rat Alpha-1 adrenergic receptor

[8] = biological target: 5-hydroxytryptamine receptor 2A (Homo sapiens, UniProt P28223)
Sequence of 5-hydroxytryptamine receptor 2A (P28223 whole entry): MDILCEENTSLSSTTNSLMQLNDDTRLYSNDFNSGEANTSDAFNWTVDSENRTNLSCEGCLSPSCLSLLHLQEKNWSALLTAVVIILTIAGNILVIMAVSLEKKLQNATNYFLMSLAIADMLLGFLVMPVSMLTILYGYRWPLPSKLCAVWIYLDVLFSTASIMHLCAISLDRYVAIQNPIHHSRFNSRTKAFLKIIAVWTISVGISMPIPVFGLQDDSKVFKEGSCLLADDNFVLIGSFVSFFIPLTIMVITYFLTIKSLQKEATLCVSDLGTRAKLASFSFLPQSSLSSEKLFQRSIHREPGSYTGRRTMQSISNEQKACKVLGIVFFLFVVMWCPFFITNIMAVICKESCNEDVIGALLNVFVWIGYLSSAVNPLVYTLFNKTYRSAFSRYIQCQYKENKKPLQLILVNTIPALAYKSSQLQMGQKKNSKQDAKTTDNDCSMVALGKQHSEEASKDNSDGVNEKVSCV
Description: Inhibition of [125I]R91150 binding to human 5-hydroxytryptamine 2A receptor

Rattus norvegicus [9] = assay: In vivo effective dose to inhibit tryptamine-induced bilateral convulsions in rats; type: functional
Rattus norvegicus [10] = assay: In vivo effective dose for reversal of tryptamine-induced backward locomotion in rats; type: functional
Mus musculus = assay: In vivo effective dose for reversal of RO-4-1284 induced hypothermia in mouse; type: functional
Rattus norvegicus [11] = species on record: Rattus norvegicus; assay: Effective dose for antagonistic activity against m-chlorophenyl-piperazine induced anxiety in rats; type: functional
Rattus norvegicus [12] = assay: In vivo effective dose to inhibit apomorphine induced agitation in rats upon subcutaneous administration; type: functional; settings: sc
Rattus norvegicus [13] = assay: In vivo effective dose for reversal of tryptamine-induced cyanosis in rats; type: functional
D(1A) dopamine receptor [14] = biological target: D(1A) dopamine receptor (Rattus norvegicus, UniProt P18901)
Sequence of D(1A) dopamine receptor (Rattus norvegicus, UniProt P18901) (P18901 whole entry): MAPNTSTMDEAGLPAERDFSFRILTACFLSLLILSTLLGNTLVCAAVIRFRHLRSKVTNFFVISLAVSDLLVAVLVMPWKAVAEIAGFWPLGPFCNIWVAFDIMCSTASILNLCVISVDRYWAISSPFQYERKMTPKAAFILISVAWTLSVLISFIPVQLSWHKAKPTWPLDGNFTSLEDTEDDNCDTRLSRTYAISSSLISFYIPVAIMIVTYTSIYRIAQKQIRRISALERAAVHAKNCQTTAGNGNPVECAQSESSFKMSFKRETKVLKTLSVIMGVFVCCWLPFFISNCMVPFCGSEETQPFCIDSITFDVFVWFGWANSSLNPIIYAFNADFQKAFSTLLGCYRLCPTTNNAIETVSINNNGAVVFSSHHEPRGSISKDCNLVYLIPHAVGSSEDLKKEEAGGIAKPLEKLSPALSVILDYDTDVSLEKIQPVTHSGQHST
Description: Inhibition of [3H]SCH-23390 binding to rat Dopamine receptor D1

SMILES | Ki [1] [nM] | Ki [2] [nM] | Ki (D(1A) dopamine receptor [3]) [nM] | Ki (Histamine H1 receptor) [nM] | Ki [4] [nM] | Ki (D(3) dopamine receptor) [nM] | Ki [5] [nM] | Ki [6] [nM] | Ki [7] [nM] | Ki [8] [µM] | ED50 (Rattus norvegicus [9]) [mg/kg] | ED50 (Rattus norvegicus [10]) [mg/kg] | ED50 (Mus musculus) [mg/kg] | ED50 (Rattus norvegicus [11]) [mg/kg] | ED50 (Rattus norvegicus [12]) [mg/kg] | ED50 (Rattus norvegicus [13]) [mg/kg] | Ki (D(1A) dopamine receptor [14]) [µM]
CN(C)C[C@H]1CC2c3ccccc3Oc3ccc(Br)cc3[C@H]2O1 (stereo partly drawn) | 742 | 382 | 154 | 42 | 35 | 95 | 407 | 8.9 | 234 | – | – | – | – | – | – | – | –
CN(C)C[C@H]1CC2c3ccccc3Oc3ccc(F)cc3[C@H]2O1 (stereo partly drawn) | 200 | 3.6 | – | 7.5 | 80 | – | 269 | 4.3 | 71 | > 5.45 | – | – | – | – | – | – | –
CN(C)C[C@@H]1CC2c3ccccc3Oc3ccc(F)cc3[C@H]2O1 (stereo partly drawn) | 219 | 20 | – | 33 | 57 | – | 251 | 7.6 | 338 | > 5.45 | – | – | – | – | – | – | –
CN(C)C[C@@H]1CC2c3ccccc3Oc3ccc(Br)cc3[C@H]2O1 (stereo partly drawn) | – | > 5450 | – | – | – | – | – | 17 | – | – | – | – | – | – | – | – | –
CN(C)C[C@H]1C[C@@H]2c3ccccc3Cc3ccccc3[C@H]2O1 | 69 | 7.8 | – | 0.43 | 13 | 84 | 126 | – | 108 | – | 0.02 | 1.2 | 0.2 | 0.18 | 2 | 0.02 | –
CN(C)C[C@@H]1CC2c3ccccc3Sc3ccc(F)cc3[C@H]2O1 (stereo partly drawn) | 78 | 2.7 | 19 | 1.2 | 34 | 8.6 | 72 | 0.65 | 32 | – | – | – | – | – | – | – | –
CN(C)C[C@@H]1CC2c3ccccc3Oc3ccc(Cl)cc3[C@H]2O1 (stereo partly drawn) | 677 | 88 | 250 | 14 | 92 | 45 | 302 | 3.7 | 228 | – | – | – | – | – | – | – | –
CN(C)C[C@H]1C[C@@H]2c3ccccc3Sc3ccc(F)cc3[C@H]2O1 | 93 | 40 | 22 | 1.4 | 6.5 | 15 | 156 | 1.5 | 41 | – | 0.08 | > 2.5 | 2 | > 2.5 | 1.2 | 0.05 | –
CN(C)C[C@H]1CC2c3ccccc3Oc3ccc(Cl)cc3[C@H]2O1 (stereo partly drawn) | 26 | 9.4 | 83 | 4.3 | 251 | 251 | 10 | 2.4 | 35 | – | – | – | – | – | – | – | –
CN(C)C[C@H]1CC2c3ccccc3Sc3ccc(F)cc3[C@H]2O1 (stereo in doubt; 8d) | 59 | 1.6 | 5.2 | 0.52 | 6.6 | 1.1 | 66 | < 0.42 | 8.8 | – | – | – | – | – | – | – | –
CN(C)C[C@H]1CC2c3ccccc3Sc3ccc(F)cc3[C@H]2O1 (stereo in doubt; (-)-8d) | 73 | 2 | 3 | 0.6 | 6.2 | 19 | 79 | 0.21 | 7.5 | – | 0.0079 | 0.32 | 0.025 | > 0.63 | 0.13 | 0.013 | –
CN1CCN(C2=Nc3cc(Cl)ccc3Nc3ccccc32)CC1 [CLOZAPINE] | – | – | – | – | – | – | – | – | – | – | 0.22 | – | > 80 | > 2.5 | 8.2 | 0.26 | –
CN1CCN2c3ccccc3Cc3ccccc3C2C1 (stereo not drawn) [MIANSERIN] | 3.8 | 101 | – | – | – | – | – | – | – | – | 0.24 | 0.55 | > 40 | 1.26 | > 10 | 0.18 | –
CN1CCN2c3ncccc3Cc3ccccc3C2C1 (stereo not drawn) [MIRTAZAPINE] | 18 | 1640 | – | – | – | – | – | 39 | 608 | – | 0.32 | 0.5 | > 40 | 0.1 | > 10 | 0.8 | 4.17
Cc1cc2c(s1)Nc1ccccc1N=C2N1CCN(C)CC1 [OLANZAPINE] | – | 958 | – | – | – | – | – | – | – | – | 0.086 | – | > 10 | 0.44 | 0.26 | 0.032 | –
Cc1nc2n(c(=O)c1CCN1CCC(c3noc4cc(F)ccc34)CC1)CCCC2 [RISPERIDONE] | – | > 5450 | – | – | – | – | – | – | – | – | 0.037 | > 10 | > 10 | > 0.31 | 0.17 | 0.002 | –
